Results on twelve molecules are retold here after ChEMBL document CHEMBL1201862, “PubChem BioAssay data set” (2004).

Common to all, as to assay: NCI tumour cell line growth inhibition, 48 h
In assay [1] the test system is 786-0.
Assay [2] concerns CAKI-1.
Assay [3] relates to EKVX.
For assay [4], the system named is HT-29.
The test system of assay [5] is Hs-578T.
Assay [6] deals with K562.
For assay [7], the system named is KM12.
Assay [8] concerns NCI-H226.
Assay [9] concerns NCI/ADR-RES.
Assay [10] deals with OVCAR-8.
Assay [11] has as its system RPMI-8226.
The subject of assay [12] is SF-268.
For assay [13], the system named is SK-MEL-28.
In assay [14] the test system is SK-MEL-5.
Assay [15] deals with SN12C.
Assay [16] has as its system SNB-75.
The test system of assay [17] is UACC-62.
Assay [18] concerns UO-31.
Assay [19] concerns HL-60.

Molecules are shown by their SMILES.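 1) Cells in 96-well plates. 2) Compound, 48 h, 5 concentrations. 3) Linear interpolation between surrounding doses. 4) Unreached endpoint = highest concentration. Abbreviation: GI50, concentration required for 50% inhibition of growth.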 The source made the active and inactive calls. Rule as the data show it: active = GI50 up to about 1.1 µM and inactive = higher. A value given as a limit tells only on which side of the number the result lay.

In the case of `CCCCCCCCCOC(=O)c1cnc(Cl)cn1`, the GI50 is 72.4 µM (inactive) in assay [1]; 16.9 µM (inactive) in [2]; 22.3 µM (inactive) in assay [3]; 29 µM (inactive) in assay [4]; 22.8 µM (inactive) in assay [5]; 36.8 µM (inactive) in [6]. In addition, the GI50 in [7] was 17.5 µM (inactive); in assay [8], 18.2 µM (inactive); in [9], 22.2 µM (inactive); in assay [10], 33.4 µM (inactive); in [11], 21.9 µM (inactive); in [12], 21.2 µM (inactive). The GI50 was 24 µM (inactive) in [13]; 17.6 µM (inactive) in assay [14]; 18.3 µM (inactive) in assay [15]; 22.3 µM (inactive) in assay [16]; 18.1 µM (inactive) in assay [17]; 18.5 µM (inactive) in [18].

Turning to `Cc1nc([N+](=O)[O-])cn1-c1nc2ccccn2c1[N+](=O)[O-]`, the GI50 in assay [1] is 61.7 µM (inactive); in assay [2] it was 53.5 µM (inactive); in [3], 63.7 µM (inactive); in assay [4], 64.9 µM (inactive); in assay [5] it was > 100 µM (inactive); in [6], 80.4 µM (inactive). In addition, the GI50 in assay [7] is 48.8 µM (inactive); in [8], > 100 µM (inactive); in assay [9] it was > 100 µM (inactive); in [10], 86.1 µM (inactive); in assay [11] it was 64.1 µM (inactive); in assay [12], > 100 µM (inactive). For the same molecule, the GI50 was > 100 µM (inactive) in [13]; 81.8 µM (inactive) in [14]; 30 µM (inactive) in assay [15]; 32.9 µM (inactive) in [16]; > 100 µM (inactive) in assay [17]; 88.5 µM (inactive) in [18].

On to `Clc1ccc(/C=C/c2nc3ccccc3s2)cc1Cl`, for which the GI50 in assay [1] is 15 µM (inactive); in assay [2], 19.8 µM (inactive); in assay [3], 51.8 µM (inactive); in [19] it was 82 µM (inactive); in assay [4], > 100 µM (inactive); in assay [5] it was 23.7 µM (inactive). Further, the GI50 in [6] is > 100 µM (inactive); in assay [7], 81.1 µM (inactive); in assay [9] it was 63.2 µM (inactive); in [10] it was 47.8 µM (inactive); in assay [11], 41.7 µM (inactive); in [12], 42.8 µM (inactive). The GI50 was > 100 µM (inactive) in [13]; 27.2 µM (inactive) in assay [14]; > 100 µM (inactive) in assay [15]; 12.8 µM (inactive) in [16]; 59.2 µM (inactive) in assay [17]; 22.1 µM (inactive) in assay [18].

For `c1ccc(/C(=N/Nc2nc3ccccc3s2)C2CCCCC2)nc1`, the GI50 in [1] is 7.29 µM (inactive); in assay [2], 6.95 µM (inactive); in assay [3], 11.9 µM (inactive); in assay [4] it was 0.569 µM (active); in assay [5], 19.6 µM (inactive); in assay [6], 7.05 µM (inactive). Also, the GI50 in assay [7] was 10 µM (inactive); in assay [8] it was 10 µM (inactive); in assay [9], 2.58 µM (inactive); in assay [10], 4.16 µM (inactive); in assay [11], 3.94 µM (inactive); in assay [12], 10.6 µM (inactive). In addition, the GI50 is 10.4 µM (inactive) in assay [13]; 6.24 µM (inactive) in assay [14]; 9.44 µM (inactive) in [15]; 12.8 µM (inactive) in assay [17]; 3.04 µM (inactive) in [18].

As for `C=C1N(C=O)C(C)(C)N(O)C1(C)C`, the GI50 in assay [1], in assay [2], in [3], in assay [4], in assay [5] and in assay [7] was > 100 µM (inactive) throughout. Moreover, the GI50 in assay [8], in [9], in assay [10], in [11], in assay [12] and in [13] was > 100 µM (inactive) throughout. Further, the GI50 in assay [14], in assay [15], in assay [16], in [17] and in assay [18] was > 100 µM (inactive) in each case.

Consider `C/C=C/C=C/c1nc(C#N)c(N)o1`, for which the GI50 in assay [1], in assay [2], in assay [3], in assay [4], in [5] and in assay [6] was > 100 µM (inactive) each time. For the same molecule, the GI50 in assay [8], in assay [9], in [10], in [11], in [12] and in [13] was > 100 µM (inactive) each time. Also, the GI50 is > 100 µM (inactive) in [15], > 100 µM (inactive) in assay [16], > 100 µM (inactive) in assay [17] and 18.3 µM (inactive) in assay [18].

For the molecule `CCOC(=O)c1nnsc1NC(=O)NCCCCCCn1c(=O)n(CCCCCCNC(=O)Nc2snnc2C(=O)OCC)c(=O)n(CCCCCCNC(=O)Nc2snnc2C(=O)OCC)c1=O`, the GI50 in assay [1] was 16.7 µM (inactive); in assay [2], 76.9 µM (inactive); in assay [3], 60.4 µM (inactive); in assay [4], > 100 µM (inactive); in assay [5], 13.7 µM (inactive); in assay [6] it was 66.4 µM (inactive). For the same molecule, the GI50 was 93.3 µM (inactive) in [7]; 18.1 µM (inactive) in [8]; > 100 µM (inactive) in assay [9]; 35.8 µM (inactive) in [10]; 11 µM (inactive) in [11]; 19.8 µM (inactive) in assay [12]. For the same molecule, the GI50 is 71.1 µM (inactive) in [14]; 33.3 µM (inactive) in assay [15]; 29.1 µM (inactive) in assay [16]; 17.3 µM (inactive) in assay [17]; 45.4 µM (inactive) in assay [18].

As to `COc1cccc2c1C(=O)c1c(O)c3c(c(O)c1C2=O)CC(O)(C(C)=O)CC3OC1OC(COC(C)=O)C(OC(C)=O)C(OC(C)=O)C1OC(C)=O` (stereo not given), the GI50 was 12.1 µM (inactive) in [1]; 0.116 µM (active) in [3]; 53.8 µM (inactive) in [19]; 25.7 µM (inactive) in [4]; 14.5 µM (inactive) in assay [5]; 18.5 µM (inactive) in assay [6]. Also, the GI50 in [7] is 52.7 µM (inactive); in assay [9], > 100 µM (inactive); in assay [10] it was 11.5 µM (inactive); in assay [12], 11.4 µM (inactive); in assay [13] it was 85.5 µM (inactive); in assay [14], 23.9 µM (inactive). The GI50 was 48.3 µM (inactive) in assay [15], 9.29 µM (inactive) in assay [16], 33.2 µM (inactive) in assay [17] and > 100 µM (inactive) in assay [18].

As to `O=C(/C=C(\N=P(c1ccccc1)(c1ccccc1)c1ccccc1)C(F)(F)C(F)(F)C(F)(F)C(F)(F)C(F)(F)C(F)(F)C(F)(F)F)c1ccccc1`, the GI50 in assay [1], in assay [2], in assay [19], in assay [4], in assay [5] and in assay [6] was > 100 µM (inactive) throughout. The GI50 in [7], in [9], in assay [11], in [12], in [13] and in assay [14] was > 100 µM (inactive) throughout. The GI50 in assay [15], in [16], in [17] and in assay [18] was > 100 µM (inactive) each time.

For `CC(O[Si](c1ccccc1)(c1ccccc1)C(C)(C)C)[C@H](NC(=O)OC(C)(C)C)C(=O)O[Si](c1ccccc1)(c1ccccc1)C(C)(C)C` (stereo not given in full), the GI50 in assay [1] was 13.2 µM (inactive); in assay [2] it was 12.4 µM (inactive); in assay [3] it was 11.9 µM (inactive); in [19], 14.4 µM (inactive); in assay [4], 11.7 µM (inactive); in assay [5], 19.2 µM (inactive). Moreover, the GI50 in [6] was 13.2 µM (inactive); in [7], 9.91 µM (inactive); in [9], 14.4 µM (inactive); in [10], 15.6 µM (inactive); in assay [11], 10.9 µM (inactive); in assay [12], 14.3 µM (inactive). Also, the GI50 in [13] is 14.3 µM (inactive); in [14], 15.7 µM (inactive); in assay [16], 15.4 µM (inactive); in assay [18] it was 13.2 µM (inactive).

In the case of `CN1C/C(=C\c2cccs2)C(O)/C(=C/c2cccs2)C1` (stereo not given), the GI50 is > 100 µM (inactive) in assay [1]; 97.5 µM (inactive) in assay [2]; > 100 µM (inactive) in assay [3]; > 100 µM (inactive) in assay [4]; > 100 µM (inactive) in assay [5]; 57.8 µM (inactive) in [6]. In addition, the GI50 in assay [7] was > 100 µM (inactive); in assay [8], > 100 µM (inactive); in assay [9] it was > 100 µM (inactive); in [10] it was > 100 µM (inactive); in assay [11], 20.2 µM (inactive); in [12], > 100 µM (inactive). Moreover, the GI50 was > 100 µM (inactive) in assay [13]; > 100 µM (inactive) in [14]; 74.5 µM (inactive) in [15]; > 100 µM (inactive) in assay [17]; 97.3 µM (inactive) in [18].

For `CCCCCCNC(=O)c1cc(C#Cc2cc(OC)ccc2OC)ccc1OC`, the GI50 in assay [1] was > 100 µM (inactive); in [2], > 100 µM (inactive); in [3], 58.9 µM (inactive); in assay [4], 7.53 µM (inactive); in assay [5] it was > 100 µM (inactive); in assay [6], 3.92 µM (inactive). The GI50 in [7] was > 100 µM (inactive); in assay [9] it was 47.8 µM (inactive); in assay [10], > 100 µM (inactive); in assay [11], 8.28 µM (inactive); in assay [12], > 100 µM (inactive); in assay [13], 3.04 µM (inactive). Also, the GI50 is 19.6 µM (inactive) in assay [14] and 62.1 µM (inactive) in [18].
